Publication PMC8819291, “Adaptively evolved human oral actinomyces‐sourced defensins show therapeutic potential” (EMBO Molecular Medicine, 2021)
Entries after “also recorded” stand apart in the source; their conditions may differ. Where a SMILES comes first, the peptide text is derived from it. Bridges are numbered along the chain shown (N, C = ends).

What was measured:
MRSA P1374 [1] = assay: Mouse peritonitis model; assay type: in vivo
Description: ICR male mice (30 g each mouse; 6 weeks of age) were infected with 0.5 ml of bacterial suspension (1 × 10^8 CFU per mouse) via intraperitoneal injection (i.p.), a dose that achieved 100% mortality within 24 h after infection. […] Vehicle (0.9%) treated control group included 11 mice. Schematic representation is provided in Appendix Fig S16C.

MRSA P1374 [2] = assay: Cytoplasmic accumulation of UMP; assay type: cell-based, Staphylococcus aureus; details: 20 × C L, 30 min; RP-HPLC, UV 260 nm
Description: To analyze the cytoplasmic nucleotide pool, we carried out the cytoplasmic UMP accumulation experiment according to the literature (Brötz et al, [1997]) with some modifications. MRSA P1374 cells were grown in 40‐ml broth medium at 37°C to an OD600 of 0.5. The culture was supplemented with 130 μg/ml chloramphenicol. […] After 30 min of incubation, UMP was extracted from the harvested cells by stirring them into boiling water. The suspension was then centrifuged (43,000 g, 60 min) at 4°C and the supernatant was lyophilized and dissolved in 400 μl of 50 mM ammonium acetate (pH 5.2) and adjusted to pH 2.0 with acetic acid. After acidification, the supernatant was fractionated by RP‐HPLC on Hypersil ODS (250 × 4.6 mm; Thermo Scientific) and UMP was eluted from the column with a linear gradient from 0 to 40% methanol in 50 mM NH4Ac (pH 5.2) within 40 min with a flow rate of 1 ml/min. UV absorbance was monitored at 260 nm. UMP was identified by ultraperformance liquid chromatography–high resolution mass spectrometry (UPLC‐HRMS) and MALDI‐TOF. Both methods yielded consistent results.

gram‐positive bacteria = assay: Inhibition-zone assay, groups of strains; assay type: cell-based
Excerpt: Bacterial media used here included: Luria‐Bertani (LB) medium, THY medium (30 g Todd Hewitt broth and 5 g Yeast extract per liter), and tryptic soy broth (TSB) (Oxoid, Basingstoke, UK); Broth medium and brain–heart infusion (BHI) medium (Beijing Landbridge technology Limited by Share Ltd., Beijing, China); Potato dextrose (PD) medium (self‐prepared).
In brief, an overnight bacterial culture from a single colony was inoculated into fresh medium and grew to late log‐phase. A 10‐μl aliquot of each culture was diluted in 6‐ml pre‐heated medium containing 0.8% agar. The mixture was spread on a 9‐cm Petri dish, giving a depth of 1 mm. After settling, 3‐mm wells were punched in the plate and then 2‐μl peptide samples of different concentrations were added to each well. The agar plates were incubated overnight at indicated temperatures (Table EV4). A lethal concentration (C L ) was calculated from a plot of d^2 against log n, where d is the diameter (in cm) and n is the amount of sample applied in the well (in nmol). The plot is linear, and thus C L can be calculated from the slope (k) and the intercept (m) of this plot.

[3] = tested on: SM (Streptococcus mutans); assay: Killing kinetics assay; assay type: cell-based; details: peptide dose 4 × C L
Description: In brief, SM was grown overnight in broth medium and diluted in fresh medium to 1 × 10^8 CFU/ml. […] Viable cell counts were obtained after 24 h of incubation at 37°C. Bacterial growth in the medium without peptides was used as a control.

SP R6 = assay: RNA sequencing of the stimulon; assay type: cell-based, Streptococcus pneumoniae; details: sub‐lethal concentration, 10 min
Description: Cells were harvested and washed with PBS buffer (pH 7.3) following further incubation for 10 min. Total RNA was isolated using the Bacteria Total RNA Isolation Kit (Sangon, China) according to the manufacturer’s instruction. RNA quality was assessed by NanoDrop and Agilent 2100 Bioanalyzer (Table EV6). After enrichment and fragment, mRNA was reverse transcribed into single‐strand DNA and then synthesized into double‐strand DNA. Following end‐filling, 5′‐phosphorylation, bubble adaptor ligation, and PCR amplification, a single‐strand circled DNA library was established for sequencing in BGISEQ‐500 sequencer (BGI, China) with a combinatorial probe‐anchor synthesis (cPAS) strategy.

A549 cells = assay: Peptide-induced IL-8 release (ELISA); assay type: cell-based, human; details: 24 h
Description: A549 and HL‐60 cells were purchased from the Cell Resource Center of the Chinese Academy of Medical Sciences (Beijing, China). They were tested for mycoplasma contamination with the Mycoplasma Detection Kit (Solarbio, China) and only negative cultures were used in our experiments. The cells were cultured in complete Dulbecco’s Modified Eagle Medium (DMEM) supplemented with 10% fetal bovine serum (FBS), penicillin (100 units/ml), and streptomycin ([…]) at 37°C in 5% CO2. The culture medium was changed every 2 days. Cells were passaged every 4–5 days with 0.25% trypsin (Gibco, USA). For enzyme‐linked immunosorbent assay (ELISA) (Hara et al, [2008]), A549 or HL‐60 cells were seeded in six‐well plates at a density of 1 × 10^5 cells/well and were incubated at 37°C in 5% CO2 overnight. Medium was aspirated and replaced with fresh complete DMEM supplemented with 10% FBS or serum‐free medium, both containing different concentrations of polypeptides for 24 h. Then, the supernatants were harvested for quantification of the IL‐8 amount in A549 by the Human CXCL8/IL‐8 Quantikine ELISA Kit (R&D Systems Inc., Minneapolis, MN, USA) and the MCP‐1 amount in HL‐60 by the Human MCP‐1 ELISA Kit (Boster Biological Technology Co., Ltd, Wuhan, China) as per the manufactures’ instructions.

CC[C@H](C)[C@@H]1NC(=O)[C@H](CCCCN)NC(=O)CNC(=O)[C@H](CCCNC(=N)N)NC(=O)[C@@H]2CSSC[C@H](NC(=O)CNC(=O)[C@H](Cc3ccccc3)NC(=O)CN)C(=O)N3CCC[C@H]3C(=O)N[C@@H](Cc3c[nH]c4ccccc34)C(=O)N[C@@H](CC(N)=O)C(=O)N[C@@H](C)C(=O)N[C@@H](Cc3ccc(O)cc3)C(=O)N[C@@H](CCC(=O)O)C(=O)N[C@H]3CSSC[C@H](NC(=O)[C@H]([C@@H](C)O)NC(=O)[C@H](CCC(N)=O)NC(=O)[C@H](CCCNC(=N)N)NC1=O)C(=O)N[C@@H](Cc1c[nH]cn1)C(=O)N[C@H](C(=O)N[C@@H](Cc1ccc(O)cc1)C(=O)O)CSSC[C@H](NC(=O)[C@H](Cc1c[nH]cn1)NC(=O)[C@H](CCCNC(=N)N)NC(=O)[C@H](CC(=O)O)NC3=O)C(=O)N[C@@H](C(C)C)C(=O)N[C@@H](CO)C(=O)N[C@@H](CCCCN)C(=O)NCC(=O)N[C@@H](Cc1ccc(O)cc1)C(=O)N[C@@H]([C@@H](C)O)C(=O)NCC(=O)NCC(=O)N[C@@H](CC(N)=O)C(=O)N2 [AMSIN] (H-GFGCPWNAYECDRHCVSKGYTGGNCRGKIRQTCHCY-OH; disulfide 4-25, 11-33, 15-35; N-terminus and C-terminus assumed)
Survival after peritoneal infection with MRSA P1374 (MRSA P1374 [1]; 1 × 10^8 CFU i.p., AMSIN i.v. 1 h post‐infection 20 mg per kg, then 10 mg per kg once daily, six mice, 7‐day study period): all survived; also recorded: survived the 7‐day study period | Toxicity of administration route in the model (MRSA P1374 [1]; intravenous injection (i.v.)): no obvious toxicity | Duration of continued survival (MRSA P1374 [1]; same six treated mice, observation period): > 30 days | Cytoplasmic accumulation of UMP (MRSA P1374 [2]): accumulated | Lethal concentrations (C L) (gram‐positive bacteria; SP (strains D39, R6, ST556, and TIGR4)): about 0.10 μM | C L (gram‐positive bacteria; three oral Streptococcus bacteria (S. mutans, S. salivarius, and S. sanguinis)): 0.5 to 1.4 µM | Viable SM cells in killing kinetics ([3]; 0 min, start 1 × 10^8 CFU/ml): 8 Log10 (CFU/mL) | Viable SM cells in killing kinetics ([3]; 15 min): 9 Log10 (CFU/mL) | Viable SM cells in killing kinetics ([3]; 30 min): 8.9 Log10 (CFU/mL) | Viable SM cells in killing kinetics ([3]; 120 min): 8.7 Log10 (CFU/mL) | Viable SM cells in killing kinetics ([3]; 240 min): 8.5 Log10 (CFU/mL) | Transcriptional profile compared with vancomycin (SP R6): partly overlapped | IL-8 (A549 cells; FBS-containing medium, 25 μg/mL, replicate 1): 93 pg/mL | IL-8 (A549 cells; FBS-containing medium, 25 μg/mL, replicate 2): 101 pg/mL | IL-8 (A549 cells; FBS-containing medium, 25 μg/mL, replicate 3): 99 pg/mL | IL-8 (A549 cells; FBS-containing medium, 50 μg/mL, replicate 1): 116 pg/mL | IL-8 (A549 cells; FBS-containing medium, 50 μg/mL, replicate 2): 121 pg/mL | IL-8 (A549 cells; FBS-containing medium, 50 μg/mL, replicate 3): 122 pg/mL | IL-8 (A549 cells; FBS-containing medium, 100 μg/mL, replicate 1): 111 pg/mL | IL-8 (A549 cells; FBS-containing medium, 100 μg/mL, replicate 2): 103 pg/mL | IL-8 (A549 cells; FBS-containing medium, 100 μg/mL, replicate 3): 106 pg/mL | IL-8 (A549 cells; Serum-Free medium, 25 μg/mL, replicate 1): 51 pg/mL | IL-8 (A549 cells; Serum-Free medium, 25 μg/mL, replicate 2): 40 pg/mL | IL-8 (A549 cells; Serum-Free medium, 25 μg/mL, replicate 3): 42 pg/mL | IL-8 (A549 cells; Serum-Free medium, 50 μg/mL, replicate 1): 40 pg/mL | IL-8 (A549 cells; Serum-Free medium, 50 μg/mL, replicate 2): 48 pg/mL | IL-8 (A549 cells; Serum-Free medium, 50 μg/mL, replicate 3): 42 pg/mL | IL-8 (A549 cells; Serum-Free medium, 100 μg/mL, replicate 1): 67 pg/mL | IL-8 (A549 cells; Serum-Free medium, 100 μg/mL, replicate 2): 78 pg/mL | IL-8 (A549 cells; Serum-Free medium, 100 μg/mL, replicate 3): 67 pg/mL
